Results taken from patent US9623031B2, “Compositions, methods and kits for treating cancer” (priority 2011, dated 2017).
“Also recorded” adds a separate entry of the source.

How the values were obtained:
[1] = tested on: blast crisis CML cells from a patient (#011711); experiment: Blast crisis CML patient cells: cytospin and annexin V apoptosis; format: cell-based, human
Description: An experiment involving a cytospin of Blast crisis CML (011711) and Geimsa stain was performed. Blast crisis CML were cultured in IMDM with BIT, LDL, L-Glu and treated with PBS or 100 nM Δ^12-PGJ3 for 12 hrs. Cells were collected and slides were done by Cytospin. Cytospin slides were stained with Wright Geimsa stain and pictures (100×) were recorded on a Material microscope.
In this experiment, 110,000/well primary AML cells were cultured in above specified media for 6 and 12 hrs. Cells were collected and washed once with ice cold PBS. The cells were resuspended in 200 ul 1× Apoptosis buffer with annexin-V PE to all tubes. The cells were washed in PBS and resuspended in 600 ul PBS and transfer into flow tubes and analyzed for apoptosis (Annexin V+ cells) on FC-500. […] In this experiment, 110,000/well AML cells were cultured in earlier mentioned media for 6 and 12 hrs. Cells were collected and washed once in PBS and resuspended in 200 ul PBS and blocked with FC receptor antibody 10 mins RT. The following antibodies were added: CD38, CD123, CD34, CD117 (BD bioscience) for 1 hr on ice. Cells were washed in PBS once and resuspended in 200 ul of apoptotic buffer, and annexin V was added and incubated for 15 mins. Apoptotic cells (Annexin V+ cells) were counted by flow cytometry. […] Apoptotic cells (Annexin V+ cells) were counted by flow cytometry.

[2] = tested on: MSCV-GFP^+ HSC transplanted mice (steady state hematopoiesis); experiment: Control mice transplanted with MSCV-GFP+ HSCs, treated; details: mouse, in vivo
Description: Induction of CML using MIGR-BCR-ABL retrovirus: MIGR-BCR-ABL and control MSCV-GFP retroviruses were obtained. […] C57BL/6 mice were treated with 5-fluorouracil (5-FU; 150 mg/Kg, Sigma, St. Louis, Mo.) to enrich for cycling HSCs. On day four after treatment bone marrow cells were harvested and infected with MIGR-BCR-ABL or MSCV-GFP control virus overnight in IMDM media containing 5% FCS and supplemented with 2.5 ng/ml IL-3 and 15 ng/ml SCF (R&D Systems Minneapolis, Minn.). 0.5×10^6 transduced cells were transplanted by retro-orbital injection into C57BL/6 recipient mice that were preconditioned with 950 Rads of irradiation. In order to increase the number of CML and control mice, 17 days after transplant GFP^+ spleen cells were isolated by FACS and 1×10^5 GFP^+ cells were transplanted into irradiated (950 Rads) secondary C57BL/6 recipients. Two weeks after transplant, mice were treated as indicated with CyPGs and vehicle control. For ex-vivo experiments, Kit^+Sca1^+Lin^−GFP^+ cells were isolated from the bone marrow or spleen of transplanted mice by FACS. The sorted cells were cultured in Methocult media M3334 (Stem Cell Technologies Vancouver BC) M3334 supplemented with Shh, SCF, and BMP4 and treated with the indicated CyPGs and vehicle controls for indicated time periods. […] The hematopoietic colonies (colony forming cells in culture, CFC) were scored. […]

LSCs = experiment: Apoptosis of LSCs as summarised in the discussion (model not specified or both models); format: cell-based, mouse
Description: Apoptosis of LSCs was performed using annexin V as described below in Supplementary Information and Methods.
The LSCs were diluted in DMEM, resuspended using a 16-gauge needle, and collected by centrifugation. 1×10^5 cells were resuspended in 200 μl of binding buffer (0.1 M HEPES with 1.4 M NaCl, 25 mM CaCl2, pH 7.4). Annexin V FITC (BD Biosciences) was incubated with cells for 15 min on ice followed by flow cytometric analysis.

p53 = p53 expression in FV-LSCs treated ex vivo (RT-PCR, nuclear extracts); format: cell-based, mouse; details: 12 h
[3] = tested on: murine erythroleukemia (MEL) cells; experiment: MEL cell apoptosis and viability (MTT, CCK-8); format: cell-based, mouse
Description: Cell culture. Murine erythroleukemia (MEL) cells were cultured in DMEM with 10% FBS. In order to examine the production 3-series PGs, BALB/c-derived RAW264.7 macrophage-like cells (ATCC) were cultured in DMEM containing 5% FBS, 250 nM sodium selenite, and 50 μM EPA (as BSA conjugate) for 72 h followed by stimulation with E. coli endotoxin lipopolysaccharide (LPS; Serotype 0111B4; 50 ng/ml) for 30 min. The cells were cultured in fresh DMEM for an additional 24-144 h. Cells cultured with cell culture-grade fatty acid free BSA (Sigma Aldrich) served as a control. Culture media was withdrawn at various times and analyzed for 3-series PGs as described below. Total RNA was isolated from cells or tissues using Trizol reagent as per the instructions of the supplier (Invitrogen, Carlsbad, Calif.) and cDNA was prepared using a High Capacity cDNA Reverse Transcriptase kit (Applied Biosystems, Foster City, Calif.). Semiquantitative RT-PCR for p53 and β-actin was performed with primers as described in Supplementary Methods. Nuclear and cytoplasmic protein extracts of LSCs were prepared using standard methods previously described (Vunta H et al., J Biol Chem. 2007; 282:17964-17973).
Cell viability studies. MEL cells were cultured in DMEM containing 10% FBS and treated with various commonly used anti-leukemic drugs such as daunorubicin (DNR), mitoxantrone (MIT), and cytarabine (CYT) at a final concentration […] for 24 h. […] After 24 h of drug treatment, cell proliferation was measured by MTT assay with CCK-8 kit from Dojindo Molecular Technologies, Inc. (Gaithersburg, Md.). All viability values reported are relative to untreated cells (UT) that was designated to be 100%. Results represent the mean±SEM of three independent observations.
In order to address whether MEL cells are resistant in general to chemotherapy agents, we tested whether MEL cells can be killed by apoptosis when treated with standard anti-leukemia drugs. Treatment with various commonly used anti-leukemic drugs such as daunorubicin (DNR), mitoxantrone (MIT), and cytarabine (CYT) at a final concentration 1 μM for 24 h. […] After 24 h of drug treatment, cell proliferation was measured by MTT assay with CCK-8 kit from Dojindo Molecular Technologies, Inc. (Gaithersburg, Md.). […] The results represent the mean±SEM of three independent observations.

[4] = tested on: primary human AML cells; LSCs (CD34+CD38−CD123+); experiment: Apoptosis of primary human AML cells and AML LSCs (annexin V); format: cell-based
Description: In this experiment, 110,000/well primary AML cells were cultured in above specified media for 6 and 12 hrs. Cells were collected and washed once with ice cold PBS. The cells were resuspended in 200 ul 1× Apoptosis buffer with annexin-V PE to all tubes. The cells were washed in PBS and resuspended in 600 ul PBS and transfer into flow tubes and analyzed for apoptosis (Annexin V+ cells) on FC-500. […] In this experiment, 110,000/well AML cells were cultured in earlier mentioned media for 6 and 12 hrs. Cells were collected and washed once in PBS and resuspended in 200 ul PBS and blocked with FC receptor antibody 10 mins RT. The following antibodies were added: CD38, CD123, CD34, CD117 (BD bioscience) for 1 hr on ice. Cells were washed in PBS once and resuspended in 200 ul of apoptotic buffer, and annexin V was added and incubated for 15 mins. Apoptotic cells (Annexin V+ cells) were counted by flow cytometry. […] Cells were collected and washed once in PBS and resuspended in 200 ul PBS and blocked with FC receptor antibody 10 mins RT. The following antibodies were added: CD38, CD123, CD34 (BD bioscience) for 1 hr on ice. Cells were washed in PBS once and resuspended in 200 ul of apoptotic buffer, and annexin V was added and incubated for 15 mins. Apoptotic cells (Annexin V+ cells) were counted by flow cytometry.
Referring to the results shown in FIG. 16, these experiments were performed with primary AML stem cells isolated from a patient. […] In an identical experiment, the cells were also treated with a synthetic DP agonist, ZK118182 (100 nM). Apoptosis of cells (by annexin V staining) was measured using flow cytometry.

## CC/C=C\C[C@H](O)C/C=C1/C(=O)C=C[C@@H]1C/C=C\CCCC(=O)O [Δ^12-PGJ3, Δ^12-prostaglandin J3]
[1]; 100 nM, 12 hrs
  cell death, cytospin with Wright Geimsa stain: death of blast-crisis CML cells
[1]; 6 and 12 hrs
  apoptosis (Annexin V+ cells): induces apoptosis in BC-CML primary patient cells
[2]
  WBC counts, other hematological parameters, survival: had no effect on WBC counts or other hematological parameters or survival
LSCs; FV-induced leukemia and BCR-ABL+ retrovirus-based murine CML model
  targeting of LSCs for apoptosis: targeted LSCs for apoptosis
LSCs; LSC type not specified, read-out: IC50, concentration required to cause apoptosis of LSCs
  IC50: 7 nM
p53; 10 or 25 nM
  p53 expression at transcript level: significant upregulation of p53 expression
p53; sorted LSC
  nuclear levels of p53 protein: increase in the nuclear levels of p53 protein
[3]
  apoptosis of MEL cells (lack functional p53): cannot induce apoptosis; also recorded: failed to initiate apoptosis
[4]; 100 nM, 6 h, patients #100810, #123009, #033107, #041909, #101308
  apoptosis of AML LSCs (Annexin V+ fraction of CD34+CD38−CD123+ cells): targeted the LSCs in all these samples
[4]; 100 nM, 6 and 12 hrs
  apoptosis of primary human AML cells (Annexin V+): induces apoptosis of primary human AML cells
[4]; 5, 50, 100 nM, 6 and 24 h, annexin V
  apoptosis of primary AML cells from bone marrow of an AML patient (72% CD133+): effective even in human primary leukemia stem cells
